Measured values: patent publication US20260124194A1 (priority 2022, published 2026)
Where “and” joins values, the source holds several entries; their conditions need not be identical. Equal entries are not always repeated. Marks after values point to notes of the source that are not given here.

What was measured:
[1] = tested on: patients with chronic intestinal pseudo-obstruction; conditions: prucalopride 2 mg, 12-week periods, cited from earlier work
[2] = tested on: Prp-SCA7-92Q transgenic mice; assay: Morphometric gut evaluation (HE histological score) in Prp-SCA7-92Q transgenic mice; type: in vivo; conditions: Prp-SCA7-92Q mice
Method: After mice were sacrificed by CO2 inhalation, the small intestine and colon tissue were cut, fixed for 48 hours with 10% neutral buffered formalin. The paraffin sample was prepared by dehydration with a series of gradient alcohol solutions according to standard methods known in the field. Tissues were cut into 4 μm sections by rotary microtome and baked for 2 hours at 60° C. After (HE) hematoxylin-eosin (HE) images were obtained from each animal at 20× magnification for histological analyses by fully automatic digital pathology slide-system (KF BIO, KF-PRO-005, China) using K-viewer Imaging software (KF BiO, V1, China).
The presence of inflammation and ulcers was quantified using indicators (i.e. ulcers=% area with intestinal mucosal damage, inflammation=necrosis, bleeding) to which a score from 0 to 3 was associated. Inflammation and ulcers scoring were awarded after section evaluation and analysis.

Prp-SCA7-92Q mice = assay: Body weight and tolerability in Prp-SCA7-92Q mice; type: in vivo; conditions: 1 and 3 mg/kg, 5 weeks of treatment
From the text: A normal control (NC) group of untreated wild-type mice was also examined. No significant differences were noticed between groups (FIG. 13).

[3] = tested on: subjects with idiopathic Chronic Intestinal Pseudo-Obstruction (CIPO); conditions: in vivo
From the text: Visits where assessed at the beginning of the screening period (Visit 1), at the beginning and at the end of each period of treatment (Visit 2 to Visit 9) and at the end of the follow-up period (Visit 10).
PLA=matching placebo once daily for 4 weeks.
Gastrointestinal symptom severity (abdominal pain, bloating, nausea and vomiting) and bowel habit (weekly recall) were registered on Day −1 and weekly after randomization, during both treatment and washout periods, as appropriate according to the Schedule of Assessments using an e-diary until end of follow up period.
Subjects were instructed to take three capsules of medication orally, once daily at approximately the same time each morning, on an empty stomach, with water.
The Primary efficacy endpoints was to evaluate the change in weekly global gastrointestinal symptoms average index score (WGGSAIS) from start to the end of each treatment period.
The WGGSAIS was obtained by averaging the scores for each of the 4 symptoms assessed weekly: abdominal pain, bloating, nausea and vomiting, with lower scores representing better health. If at least 2 symptoms were assessed, the average score was calculated, otherwise, it was considered missing.
Change between the end of treatment and pre-treatment WGGSAIS value≤−1 point was computed and considered a “success” while changes >−1 were considered a “failure”. The proportion of subjects with a 1-point improvement in WGGSAIS is summarized by treatment sequence, period and timepoint (weekly evaluation by e Diary.
Considering the evaluable pairs, the proportions of pairs of observations with 1-point improvement in WGGSAIS is summarized by treatment and timepoint. […]
Considering the evaluable pairs, the number of pseudo-obstruction episodes occurring within each treatment period and number of pseudo-obstruction episodes occurring within wash-out/follow up was considered as categorical variables classified as 0, 1, 2 and >2 and are summarized by treatment.
The same descriptive analyses described above are repeated focusing on change from the end of each treatment period to the end of each week of washout period or follow-up period instead of the change between post-treatment and pre-treatment.

[4] = tested on: subjects with idiopathic Chronic Intestinal Pseudo-Obstruction (CIPO)
Method: Safety was assessed at each visit measuring and evaluating changes from the baseline of the following parameters: • Vital signs (including blood pressure, pulse, temperature). • Physical examination also including height and weight. • Routine laboratory parameters (hematocrit, hemoglobin, red blood cell count, white blood cell count with differential count and platelet count for hematology; glycaemia, total cholesterol, triglycerides, serum creatinine, urea or blood urea nitrogen [BUN], sodium, potassium, chloride, AST, ALT, Gamma-GT, alkaline phosphatase, total and fractioned bilirubin (direct and indirect), erythrocyte sedimentation rate, PT (or INR), aPTT for biochemistry; specific gravity, pH, protein, glucose, ketones, hemoglobin, nitrite, bilirubin, urobilinogen and microscopic examination for urinalysis). • Triplicate ECG • Adverse events (AEs). • Withdrawal from study due to AEs.
Adverse events starting on or after the first intake of investigational product were considered treatment-emergent AEs (TEAEs). Verbatim terms for AEs were coded using the most current version of Medical Dictionary for Regulatory Activities (MedDRA) coding. […]

Compound: COCCCN1CCC(NC(=O)c2cc(Cl)c(N)c3c2OCC3)CC1 [prucalopride]
- stool frequency and consistency [1]: did not affect
- patients with significantly improved bloating ([1]; four completers): four
- patients with significantly improved nausea ([1]; four completers): two
- patients with significantly improved pain ([1]; four completers): three of four patients
- patients with significantly improved vomiting ([1]; four completers): one

Compound: CC(C)n1c(=O)c(C(=O)N[C@H]2C[C@H]3CC[C@@H](C2)N3C[C@@H](O)CN(C)S(C)(=O)=O)cc2ccccc21 [velusetrag, 1-isopropyl-2-oxo-1,2-dihydroquinoline-3-carboxylic acid {(1S,3R,5R)-8-[(R)-2-hydroxy-3-(methanesulfonyl-methyl-amino)propyl]-8-azabicyclo[3.2.1]oct-3-yl}amide]
- Inflammation (count of necrosis) score, DSI ([2]; 1 mg/kg po once daily 5 weeks): 1.6 ± 0.1
- Inflammation (count of necrosis) score, Proximal Colon ([2]; 1 mg/kg po once daily 5 weeks): 1.5 ± 0.1
- Total score, DSI ([2]; 1 mg/kg po once daily 5 weeks): 2.4 ± 0.1
- Total score, Proximal Colon ([2]; 1 mg/kg po once daily 5 weeks): 2.4 ± 0.1
- Ulcers (mucosal damage) score, DSI ([2]; 1 mg/kg po once daily 5 weeks): 0.8 ± 0.1^∘
- Ulcers (mucosal damage) score, Proximal Colon ([2]; 1 mg/kg po once daily 5 weeks): 0.9 ± 0.05
- Inflammation (count of necrosis) score, DSI ([2]; 3 mg/kg po once daily 5 weeks): 1.2 ± 0.1*^∘∘∘
- Inflammation (count of necrosis) score, Proximal Colon ([2]; 3 mg/kg po once daily 5 weeks): 1.1 ± 0.1*^∘∘∘
- Total score, DSI ([2]; 3 mg/kg po once daily 5 weeks): 1.8 ± 0.1**^∘
- Total score, Proximal Colon ([2]; 3 mg/kg po once daily 5 weeks): 1.5 ± 0.1*^∘∘∘
- Ulcers (mucosal damage) score, DSI ([2]; 3 mg/kg po once daily 5 weeks): 0.6 ± 0.1^∘
- Ulcers (mucosal damage) score, Proximal Colon ([2]; 3 mg/kg po once daily 5 weeks): 0.4 ± 0.01^∘∘
- tolerability: body weight and lethality throughout treatment (Prp-SCA7-92Q mice): no reduction in body weight and lethality was observed
- WGGSAIS total score, mean change from end of treatment at the end of wash-out [3]: 0.54±0.736
- WGGSAIS, mean [3]: 1.707 and 1.608 and 1.367 and 1.458
- WGGSAIS, mean change from pre-treatment to end of treatment [3]: −0.529±0.7956
- WGGSAIS, mean difference between treatments (velusetrag minus placebo) [3]: −0.342+0.9343
- total TEAEs classified as velusetrag emergent ([4]; Safety Set (placebo emergent 38)): 29
- subjects with TEAEs classified as velusetrag emergent, % ([4]; Safety Set, 17 subjects (placebo emergent 58.82%)): 41.18%
